Here are results for six compounds from patent publication US20160333073A1, “DRUG DELIVERY SYSTEM” (UCL BUSINESS PLC, priority 2014, published 2016).

Data set [1] is classed as binding, rabbit. The text has this:
The affinity of the peptide may be defined in terms of its binding affinity to hyaluronic acid and/or collagen, and assessed by way of its diffusion from one chamber of a micro-equilibrium dialyser containing vitreous matter (e.g. hyaluronic acid) to another chamber containing vitreous matter in the absence of such a binding peptide. Thus, the concentration of peptide remaining in the initial chamber over time provides a quantitative parameter for assessing the amount of peptide remaining in the vitreous, this parameter being innately governed by peptide binding properties to hyaluronic acid. A comparison with the binding properties of the peptide of SEQ ID No. 1 allows the relative affinity to the determined (for example, see FIG. 3).
FIG. 1. Harvard Fast Micro-Equilibrium Dialyzer. Each dialyzer is made of polytetrafluoroethylene (PTFE) and contains a 250 μl chamber on either side of a 100 kDa molecular weight cut off (MWCO) cellulose acetate membrane. The chambers were incubated at room temperature for up to 8 hours, and the diffusion from one chamber to the other was assessed. […]
In order to study the diffusion properties of HABP35-F in vitreous, Fast Micro-Equilibrium Dialyzers (250 μl chamber volume) were purchased from Harvard Apparatus Ltd (UK). […] The rate at which HABP35-F and RP2-F diffused from one side of the dialyzer to the other was assessed over time. […]

The format of data set [2] is binding. The method, then: FIG. 1. Harvard Fast Micro-Equilibrium Dialyzer. Each dialyzer is made of polytetrafluoroethylene (PTFE) and contains a 250 μl chamber on either side of a 100 kDa molecular weight cut off (MWCO) cellulose acetate membrane. The chambers were incubated at room temperature for up to 8 hours, and the diffusion from one chamber to the other was assessed. The side in which the peptide is placed is termed the donating chamber. The other side, towards which the peptide diffuses, is termed the receiving chamber.
FIG. 4. The diffusion of HABP35-F (left-hand column in each case) and RP2-F (right-hand column in each case) in hyaluronic acid, using a Harvard Fast Micro-Equilibrium Dialyzer. […] Concentration of HABP35-F or RP2-F, in the donating and receiving chambers, was measured at the 8-hour time point (n=3). The concentration gradient was then determined (difference between the concentration of the donating and receiving chambers). […]
In order to assess whether the retention in the donating chamber was due to an interaction with hyaluronic acid (HA), a solution of 2.5 mg/ml HA (in HEPES buffered saline) was added to each chamber, instead of rabbit vitreous. 20 nmole/ml of HABP35-F or RP2-F was added to the donating chamber and diffusion was measured over 8 hours. […] As a control, diffusion in HEPES buffered saline (HBS) alone was also assessed. […]

Details of data set [3]: species or system Sprague Dawley rats. The note with it: rat, in vivo. How it is done:
FIG. 5. The retention of HABP35-F and RP2-F in rat vitreous after 48 hours. 2.5 μl of HABP35-F or RP2-F (250 nmole/ml) was injected into the vitreous of adult male Sprague Dawley rats. After 48 hours the eyes were removed. The cornea and lens was removed and the eye cup opened out into a Maltese cross. The vitreous and retina was photographed using an epifluorescent microscope (using equal exposure settings). A) Fluorescence of HABP35-F in the vitreous 48 hours following injection. B) Fluorescence of RP-F in the vitreous 48 hours following injection. C) Collage photograph showing fluorescence of HABP35-F in the vitreous 48 hours following injection.
FIG. 6. The in vivo diffusion study of HABP35-FP (higher line) and RP2-F (lower line) in rat vitreous over time. […] At different time points (0, 8, 24, 72, 168 hours) rats were sacrificed and the concentration of peptide in the vitreous was measured by fluorescence. […]
HABP-35-F was modified to protect the N-terminus from enzymatic degradation, through conversion of the terminal leucine to its D-configuration and by acetylation. […] The vitreous was extracted and peptide concentration measured by assessing fluorescence of the extracted vitreous. Three eyes were assessed, for each peptide, at each time point. In addition, the fluorescence of the vitreous was directly assessed on eye-cup flat mounts using an epifluorescent microscope.

A short description of data set [4]: Degradation by proteases in rabbit vitreous (mass spectrometry / UPLC-MS). How it is done: FIG. 10. […] UPLC-MS=ultra performance liquid chromatography-mass spectrometry.
FIG. 11. The effect of the protease inhibitors aprotinin (8 μM), bestatin (500 μM), E-64 (150 μM), and leupeptin (200 μM) on HABP35-F detection by UPLC-MS, after 6 hours incubation in rabbit vitreous. […] The experiment was performed three times (n=3). UPLC-MS=ultra performance liquid chromatography-mass spectrometry.
In order to assess degradation of HABP35-F by proteases present in rabbit vitreous, HABP35-F was incubated in rabbit vitreous for a period of 12 hours. Samples of HABP35-F in rabbit vitreous were taken at 0 and 12 hours and the mass spectrum traces for HABP35-F were compared.
In order to confirm that fragmentation occurred at the N-terminus (as opposed to the C-terminus), HABP35-B was incubated for 12 hours with rabbit vitreous.
In order to further confirm that HABP35-F was being enzymatically digested at the N-terminus, the proportion of HABP35-F that could be detected following incubation was assessed, with or without bestatin. Bestatin is an aminopeptidase inhibitor. Aminopeptidases catalyse the cleavage of amino acids from the N-terminus of peptides/proteins.
In order to optimise detection, further other protease inhibitors were added (aprotinin, bestatin, E-64, leupeptin).

A short description of data set [5]: HA binder screening ELISA on non-covalently bound HA. The format is binding. The note with it: for specific binding to non-covalently bound HA (A450 HA wells minus blank wells): n=3, compared with RP-B. The method, then: FIG. 7. […] Three ELISAs were performed for each concentration (n=3). Error bars represent standard deviation.
FIG. 8. […] Specific binding was obtained by subtracting A450 of blank wells from A450 of HA loaded wells, from the readings represented in FIG. 7. Three ELISAs were performed for each concentration (n=3). […] Error bars represent standard deviation.
Wells of a clear polystyrene Amine Surface 96 well ELISA plates (Corning Life Sciences Ltd) were loaded with 100 μl of 1 mg/ml HA sodium salt (Sigma-Aldrich Ltd) in 0.1 M 2-[N-morpholino] ethane sulfonic acid (MES, pH 4.5-5, Sigma-Aldrich Ltd). The wells were incubated for three hours at room temperature on an orbital shaker. All further incubations occurred at room temperature on an orbital shaker.
Wells were then washed three times with wash buffer (0.05% Tween 20 (Sigma-Aldrich Ltd) in phosphate buffered saline (PBS), pH 7.2-7.4). PBS was prepared to the following formula: 137 mM sodium chloride, 2.7 mM potassium chloride, 8.1 mM sodium phosphate dibasic, 1.5 mM potassium phosphate monobasic, pH 7.2-7.4, 0.22 μm filtered. 300 μl of 3% BSA (Sigma-Aldrich Ltd) in PBS was used to block each well. After 90 minutes incubation the wells were washed again three times. Different concentrations of biotinylated HA binding peptides, or control peptides, were then added, dissolved in 100 μl of 3% BSA PBS, and incubated for 1 hour. Three further washes were performed. 100 μl of streptavidin-horse radish peroxidase (S-HRP) (R&D Systems Ltd) (diluted to a working concentration of 1:200 in PBS) was added to each well, to detect any bound biotinylated peptide. The wells were incubated for 20 minutes, protected from light, followed by three further washes. 100 μl of tetramethylbenzidine (TMB)/H2O2, was added to each well. The wells were incubated for 10 minutes, protected from light. The reaction was stopped with 50 μl of 1 M H2SO4. Optical density of each well was read immediately, using a Modulus Microplate Reader set to 450 nm, One-way analysis of variance (ANOVA) was used to deter line statistical significance between groups (GraphPad Prism 5, GraphPad software Ltd).
Background: ELISA stands for enzyme-linked immunosorbent assay.

Read-outs that look alike come from different tables or passages of the source. Square brackets hold non-standard residues; d marks the D form. Peptide text beside a SMILES is read from it. * marks the point of attachment. FITC = O=C1OC2(c3ccc(O)cc3Oc3cc(O)ccc32)c2ccc(NC(=S)*)cc21

“SATPASAPYPLAGGGSSATPASAPYPLAGGGS-K(FITC)-amide [RP2-F, reference compound]”: in data set [1] (rabbit vitreous, 20 nmole/ml peptide in donating chamber, 100 kDa MWCO membrane, 2, 4, 6 and 8 hours, fluorescence), the “peptide concentration in / retention in the donating chamber” value is “almost reaching equilibrium”. The “concentration gradient (concentration in donating chamber - concentration in receiving chamber)” value in data set [1] (rabbit vitreous, 2, 4, 6 and 8 hours) is “almost reached zero”.

As to `CC[C@H](C)[C@H](NC(=O)[C@H](CCCCN)NC(=O)[C@H](CCC(N)=O)NC(=O)[C@H](CCCCN)NC(=O)[C@@H](N)CC(C)C)C(=O)N[C@@H](CCCCN)C(=O)N[C@@H](Cc1c[nH]cn1)C(=O)N[C@H](C(=O)N[C@H](C(=O)N[C@@H](CCCCN)C(=O)N[C@@H](CC(C)C)C(=O)N[C@@H](CCCCN)C(=O)N[C@H](C(=O)N[C@H](C(=O)N[C@H](C(=O)N[C@@H](CCCCN)C(=O)N[C@@H](CC(C)C)C(=O)N[C@@H](CCCNC(=N)N)C(=O)N[C@@H](CO)C(=O)N[C@@H](CCC(N)=O)C(=O)N[C@@H](CC(C)C)C(=O)N[C@H](C(=O)N[C@@H](CCCCN)C(=O)N[C@@H](CCCNC(=N)N)C(=O)N[C@@H](CCCCN)C(=O)N[C@@H](CCC(N)=O)C(=O)N[C@@H](CC(N)=O)C(=O)NCC(=O)NCC(=O)NCC(=O)N[C@@H](CO)C(=O)N[C@@H](CCCCNC(=S)Nc1ccc2c(c1)C(=O)OC21c2ccc(O)cc2Oc2cc(O)ccc21)C(N)=O)C(C)C)C(C)C)C(C)C)C(C)C)C(C)C)C(C)C` [HABP35-F] (H-LKQKIKHVVKLKVVVKLRSQLVKRKQNGGGSK(FITC)-NH2), the “total amount of peptide in both chambers (degradation) during diffusion study” value in data set [2] is “minimal degradation”. The “fluorescence of peptide in the vitreous (epifluorescent microscopy)” value in data set [3] was “visibly more fluorescent peptide”. Moreover, the “degradation in rabbit vitreous (mass spectrum)” value in data set [4] is on record as “this new molecule was HABP35-F minus the N-terminal leucine”.

Take “GAHWQFNALTVR-GGGS-K(Biotin)-amide [Pep1-B, reference compound]”: in data set [5], the “specific binding to non-covalently bound HA (A450 HA wells minus blank wells)” value is on record as “significantly greater specific binding at all concentrations tested”.

With “LKQKIKHVVKLKVVVKLRSQLVKRKQN-GGGS-K(Biotin)-amide [HABP35-B]”, in data set [5], the “non-specific binding (blocked wells without HA)” value is reported as “high non-specific binding” and the “specific binding to non-covalently bound HA (A450 HA wells minus blank wells)” value is “specific signal deteriorated at higher concentrations”. Besides, in data set [5] (non-covalently bound HA), the “concentrations showing specific binding relative to HABP42-B or Pep1-B” value was “ten-fold less”. In addition, the “degradation in rabbit vitreous (mass spectrum)” value in data set [4] (incubation in rabbit vitreous, 12 hours vs 0 hours) is reported as “a new ion also appeared, containing a comparable loss in MW to that seen with HABP35-F”.

For the compound `CC[C@H](C)[C@H](NC(=O)[C@H](CCCCN)NC(=O)[C@H](CCC(N)=O)NC(=O)[C@H](CCCCN)NC(=O)[C@@H](CC(C)C)NC(C)=O)C(=O)N[C@@H](CCCCN)C(=O)N[C@@H](Cc1c[nH]cn1)C(=O)N[C@H](C(=O)N[C@H](C(=O)N[C@@H](CCCCN)C(=O)N[C@@H](CC(C)C)C(=O)N[C@@H](CCCCN)C(=O)N[C@H](C(=O)N[C@H](C(=O)N[C@H](C(=O)N[C@@H](CCCCN)C(=O)N[C@@H](CC(C)C)C(=O)N[C@@H](CCCNC(=N)N)C(=O)N[C@@H](CO)C(=O)N[C@@H](CCC(N)=O)C(=O)N[C@@H](CC(C)C)C(=O)N[C@H](C(=O)N[C@@H](CCCCN)C(=O)N[C@@H](CCCNC(=N)N)C(=O)N[C@@H](CCCCN)C(=O)N[C@@H](CCC(N)=O)C(=O)N[C@@H](CC(N)=O)C(=O)NCC(=O)NCC(=O)NCC(=O)N[C@@H](CO)C(=O)N[C@@H](CCCCNC(=S)Nc1ccc2c(c1)C(=O)OC21c2ccc(O)cc2Oc2cc(O)ccc21)C(N)=O)C(C)C)C(C)C)C(C)C)C(C)C)C(C)C)C(C)C` [HABP35-FP] (Ac-[dL]KQKIKHVVKLKVVVKLRSQLVKRKQNGGGSK(FITC)-NH2), in data set [3], the “fluorescence of peptide in the vitreous (epifluorescent microscopy)” value was “increased retention”.

For `CC(C)C[C@H](NC(=O)[C@@H](O)[C@H](N)Cc1ccccc1)C(=O)O` [Bestatin, reference compound], in data set [4] (HABP35-F 10 nmole/ml, 6 hours incubation in rabbit vitreous, bestatin 250 μM), the “amount of HABP35-F detectable by UPLC-MS” value is “significantly increased”.
